Experimental data: US20110144022A1, “Anti-Angiogenic Peptide” (ISTITUTO NAZIONALE PER LA RICERCA SUL CANCRO, priority 2004, published 2011)

Experiments:
[1] = tested on: angiogenesis; experiment: Matrigel sponge in vivo angiogenesis assay; design: species or system C57B1 mice; conditions: for effect of anti IL-12 antibody on the anti-angiogenic activity: neutralizing anti mouse IL-12 antibody added to the matrigel mixture
Method: the assay was performed in C57B1 mice as described (3).
To verify whether IL-12 was a mediator of AST function, a neutralizing anti mouse IL-12 antibody (Peproteck Inc. London) and respectively an irrelevant anti phage 13 antibody (5 prime, 3 prime Inc. Boulder, Co. 150 ng/ml) were added to the mixture.
After animal sacrifice, pellets were fixed in 4% PAF and paraffin embedded; […] sections were stained with hematoxylin-eosin standard procedure.
FIG. 1-b: matrigel in vivo angiogenesis assay with AST. Columns show means and standard error of groups comprising six animals each. KS-conditioned medium (KSCM) is the stimulus (control).
FIG. 1-c: matrigel in vivo angiogenesis assay with peptides.
A combination of peptides and anti IL-12 Ab was added to the samples containing KSCM as indicated.
FIG. 2, a-h: standard ematoxylin-eosin staining of the matrigel pellets relative to experiments in FIG. 1-c.

[2] = tested on: polymorphonucleate (PMN); experiment: Neutrophil (PMN) chemotaxis assay with IL-8 as chemoattractant; type: cell-based; conditions: CXCR1 and CXCR2-agonist and IL8 as chemoattractants
Method: The assay was conducted in 48 wells chambers (Costar Nucleopore, Milan, Italy) according to Falk (4). The lower compartment of each chamber was filled with 27 μL of chemoattractant (IL-8, 50 ng/ml) in RPMI 0.1% BSA (SFM). Serum-free medium (SFM) was used for spontaneous migration without stimulus. The upper compartment was filled with 50 μL of polymorphonucleate (PMN) suspension in SFM (3×10^6 cells/ml); each experimental point was performed in sextuplicate. Chambers were incubated at 37° C. in 5% CO2 in humidified atmosphere for 45 minutes. Filters were removed and the cells fixed in 100% ethanol and stained with toluidine blue. The migrated cells were quantified by scanning of the filter surface and by densitometry of blue staining by NIH Imaging Analysis Software.
FIG. 3: PMN chemotaxis. Densitometry of migrated cells. IL-8 represents the stimulus in each sample, to which either AST or relevant peptides are added.

[3] = tested on: KS-imm cells; experiment: Xenotransplant of Kaposi sarcoma (KS-imm) tumor cells in nude mice; type: in vivo, CD1 nude mice; conditions: single administration three days before cell injection
Method: CD1 nude mice were injected in the flank with 5 million KS-imm cells and split in four groups: one was injected peri-tumorally with 2.5 μg AST (Calbiochem, La Jolla, Calif.) in 100 μl PBS-BSA, a control group was injected with vehicle alone, a third group with 2.5 mg of peptide SEQ ID NO:1 or a control peptide. Mice were sacrificed at day 31.

Substance	effect of anti IL-12 antibody on the anti-angiogenic activity [1]	anti-angiogenic activity in matrigel sponges (hemoglobin quantification) ([1]; KS-conditioned medium (KSCM) as stimulus, compared with angiostatin)	angiogenesis inhibition by hematoxylin-eosin stain of matrigel pellets ([1]; histology of matrigel sponges)	local cellular infiltration in matrigel pellets ([1]; histology of matrigel sponges)	activity in neutrophil chemotaxis assay (inhibition of migration) [2]	tumor growth [3]
angiostatin	inhibited by and antibody anti IL-12					
HNRTPENFPCKNL (listed as Homo sapiens) [peptide SEQ ID NO:1, 13mer from Kringle 3 of angiostatin, starting from position 307 of human plasminogen]	inhibited by and antibody anti IL-12	more active than angiostatin	potent angiogensis inhibition	drastically reduced	significantly higher compared to other angiostatin peptides	able to diminish tumor growth with respect to angiostatin
